{"source": "paper PMC7419507", "about": "“In vitro Cas9-assisted editing of modular polyketide synthase genes to produce desired natural product derivatives” (Nature Communications, 2020)", "key": {"[1]": {"test": "Cytotoxicity assay (CellTiter-Glo, 72 h), Jurkat", "assay_type": "cell-based", "conditions": "human, Jurkat cells (T lymphoma), raw data (replicates)", "procedure,_shortened": "(§1)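 Incubate 4 h at 37 °C, 5% CO2. Add 2-fold compound dilutions, 0.5% DMSO. After 72 h, read CellTiter-Glo luminescence.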"}, "T lymphoma Jurkat cells": {"tested_on": "T lymphoma Jurkat cells", "test": "Cytotoxicity assay (CellTiter-Glo, 72 h), Jurkat", "assay_type": "cell-based", "conditions": "raw data (replicates)", "procedure,_shortened": "as §1"}, "[2]": {"test": "Cytotoxicity assay (CellTiter-Glo, 72 h), SKOV-3", "assay_type": "cell-based, human", "conditions": "human, raw replicate data, read-out: SKOV3 viability (%)", "procedure,_shortened": "as §1"}, "[3]": {"tested_on": "human ovarian adenocarcinoma SKOV-3 cells", "test": "Cytotoxicity assay (CellTiter-Glo, 72 h), SKOV-3", "assay_type": "cell-based", "conditions": "conc 9.53674e-5 uM; raw replicate data", "procedure,_shortened": "as §1"}}, "note": "Values joined by “and” are separate entries in the source; they are usually repeats but may differ in a detail not shown here. Equal entries are not always repeated.", "data": [{"compound": "CO[C@H]1C[C@@H]2CC[C@@H](C)[C@@](O)(O2)C(=O)C(=O)N2CCCC[C@H]2C(=O)O[C@H]([C@H](C)C[C@@H]2CC[C@@H](O)[C@H](OC)C2)CC(=O)[C@H](C)/C=C(\\C)[C@@H](O)CC(=O)[C@H](C)C[C@H](C)/C=C/C=C(C)/C=C/1C", "note": "[Compound 2, 27-demethoxy-19-methyl rapamycin]", "values": [{"measurement": "viability at 72 h, 9.53674e-05 uM", "setting": "[1]; conc 9.53674e-5 uM", "value": 101, "unit": "%"}, {"measurement": "viability at 72 h, 0.000190735 uM", "setting": "[1]; conc 0.000190735 uM", "value": 101, "unit": "%"}, {"measurement": "viability at 72 h, 0.00038147 uM", "setting": "[1]; conc 0.00038147 uM", "value": 105, "unit": "%"}, {"measurement": "viability at 72 h, 0.000762939 uM", "setting": "[1]; conc 0.000762939 uM", "value": 110, "unit": "%"}, {"measurement": "viability at 72 h, 0.00152588 uM", "setting": "[1]; conc 0.00152588 uM", "value": 104, "unit": "%"}, {"measurement": "viability at 72 h, 0.00305176 uM", "setting": "[1]; conc 0.00305176 uM", "value": 96, "unit": "%"}, {"measurement": "viability at 72 h, 0.00610352 uM", "setting": "[1]; conc 0.00610352 uM", "value": 102, "unit": "%"}, {"measurement": "viability at 72 h, 0.012207 uM", "setting": "[1]; conc 0.012207 uM", "value": 103, "unit": "%"}, {"measurement": "viability at 72 h, 0.0244141 uM", "setting": "[1]; conc 0.0244141 uM", "value": 98.4, "unit": "%"}, {"measurement": "viability at 72 h, 0.0488281 uM", "setting": "[1]; conc 0.0488281 uM", "value": 101, "unit": "%"}, {"measurement": "viability at 72 h, 0.0976562 uM", "setting": "[1]; conc 0.0976562 uM", "value": 98.8, "unit": "%"}, {"measurement": "viability at 72 h, 0.195312 uM", "setting": "[1]; conc 0.195312 uM", "value": 97.6, "unit": "%"}, {"measurement": "viability at 72 h, 0.390625 uM", "setting": "[1]; conc 0.390625 uM", "value": 103, "unit": "%"}, {"measurement": "viability at 72 h, 0.78125 uM", "setting": "[1]; conc 0.78125 uM", "value": 95.4, "unit": "%"}, {"measurement": "viability at 72 h, 1.5625 uM", "setting": "[1]; conc 1.5625 uM", "value": 97.9, "unit": "%"}, {"measurement": "viability at 72 h, 3.125 uM", "setting": "[1]; conc 3.125 uM", "value": 90.3, "unit": "%"}, {"measurement": "viability at 72 h, 6.25 uM", "setting": "[1]; conc 6.25 uM", "value": 93.3, "unit": "%"}, {"measurement": "viability at 72 h, 12.5 uM", "setting": "[1]; conc 12.5 uM", "value": 79.6, "unit": "%"}, {"measurement": "viability at 72 h, 25 uM", "setting": "[1]; conc 25 uM", "value": 26.4, "unit": "%"}, {"measurement": "viability at 72 h, 50 uM", "setting": "[1]; conc 50 uM", "value": 0.7, "unit": "%"}, {"measurement": "Jurkat viability (%)", "setting": "T lymphoma Jurkat cells; conc 9.53674e-5 uM", "value": "102.6% and 90.2%"}, {"measurement": "Jurkat viability (%)", "setting": "T lymphoma Jurkat cells; conc 0.000190735 uM", "value": "99.7% and 100.1%"}, {"measurement": "Jurkat viability (%)", "setting": "T lymphoma Jurkat cells; conc 0.00038147 uM", "value": "102.4% and 92.6%"}, {"measurement": "Jurkat viability (%)", "setting": "T lymphoma Jurkat cells; conc 0.000762939 uM", "value": "99.9% and 100.9%"}, {"measurement": "Jurkat viability (%)", "setting": "T lymphoma Jurkat cells; conc 0.00152588 uM", "value": "104.7% and 99.5%"}, {"measurement": "Jurkat viability (%)", "setting": "T lymphoma Jurkat cells; conc 0.00305176 uM", "value": "96.2% and 98.5%"}, {"measurement": "Jurkat viability (%)", "setting": "T lymphoma Jurkat cells; conc 0.00610352 uM", "value": 101.1, "unit": "%"}, {"measurement": "Jurkat viability (%)", "setting": "T lymphoma Jurkat cells; conc 0.012207 uM", "value": 91.7, "unit": "%"}, {"measurement": "Jurkat viability (%)", "setting": "T lymphoma Jurkat cells; conc 0.0244141 uM", "value": 102.1, "unit": "%"}, {"measurement": "Jurkat viability (%)", "setting": "T lymphoma Jurkat cells; conc 0.0488281 uM", "value": "95.8% and 99.2%"}, {"measurement": "Jurkat viability (%)", "setting": "T lymphoma Jurkat cells; conc 0.0976562 uM", "value": "102.7% and 105.1%"}, {"measurement": "Jurkat viability (%)", "setting": "T lymphoma Jurkat cells; conc 0.195312 uM", "value": "95.3% and 96.4%"}, {"measurement": "Jurkat viability (%)", "setting": "T lymphoma Jurkat cells; conc 0.390625 uM", "value": 104.4, "unit": "%"}, {"measurement": "Jurkat viability (%)", "setting": "T lymphoma Jurkat cells; conc 0.78125 uM", "value": "92.4% and 89.9%"}, {"measurement": "Jurkat viability (%)", "setting": "T lymphoma Jurkat cells; conc 1.5625 uM", "value": 98.7, "unit": "%"}, {"measurement": "Jurkat viability (%)", "setting": "T lymphoma Jurkat cells; conc 3.125 uM", "value": "91.9% and 84.9%"}, {"measurement": "Jurkat viability (%)", "setting": "T lymphoma Jurkat cells; conc 6.25 uM", "value": "85.7% and 88.3%"}, {"measurement": "Jurkat viability (%)", "setting": "T lymphoma Jurkat cells; conc 12.5 uM", "value": "78.8% and 80.3%"}, {"measurement": "Jurkat viability (%)", "setting": "T lymphoma Jurkat cells; conc 25 uM", "value": "27.8% and 28.9%"}, {"measurement": "viability at 72 h, 9.53674e-05 uM", "setting": "[2]; SKOV-3 cells (ovarian adenocarcinoma), conc 9.53674e-5 uM", "value": 94.7, "unit": "%"}, {"measurement": "viability at 72 h, 0.000190735 uM", "setting": "[2]; SKOV-3 cells (ovarian adenocarcinoma), conc 0.000190735 uM", "value": 95.8, "unit": "%"}, {"measurement": "viability at 72 h, 0.00038147 uM", "setting": "[2]; SKOV-3 cells (ovarian adenocarcinoma), conc 0.00038147 uM", "value": 97.8, "unit": "%"}, {"measurement": "viability at 72 h, 0.000762939 uM", "setting": "[2]; SKOV-3 cells (ovarian adenocarcinoma), conc 0.000762939 uM", "value": 98.5, "unit": "%"}, {"measurement": "viability at 72 h, 0.00152588 uM", "setting": "[2]; SKOV-3 cells (ovarian adenocarcinoma), conc 0.00152588 uM", "value": 106, "unit": "%"}, {"measurement": "viability at 72 h, 0.00305176 uM", "setting": "[2]; SKOV-3 cells (ovarian adenocarcinoma), conc 0.00305176 uM", "value": 97, "unit": "%"}, {"measurement": "viability at 72 h, 0.00610352 uM", "setting": "[2]; SKOV-3 cells (ovarian adenocarcinoma), conc 0.00610352 uM", "value": 105, "unit": "%"}, {"measurement": "viability at 72 h, 0.012207 uM", "setting": "[2]; SKOV-3 cells (ovarian adenocarcinoma), conc 0.012207 uM", "value": 90.8, "unit": "%"}, {"measurement": "viability at 72 h, 0.0244141 uM", "setting": "[2]; SKOV-3 cells (ovarian adenocarcinoma), conc 0.0244141 uM", "value": 96.5, "unit": "%"}, {"measurement": "viability at 72 h, 0.0488281 uM", "setting": "[2]; SKOV-3 cells (ovarian adenocarcinoma), conc 0.0488281 uM", "value": 96.1, "unit": "%"}, {"measurement": "viability at 72 h, 0.0976562 uM", "setting": "[2]; SKOV-3 cells (ovarian adenocarcinoma), conc 0.0976562 uM", "value": 97.7, "unit": "%"}, {"measurement": "viability at 72 h, 0.195312 uM", "setting": "[2]; SKOV-3 cells (ovarian adenocarcinoma), conc 0.195312 uM", "value": 97.9, "unit": "%"}, {"measurement": "viability at 72 h, 0.390625 uM", "setting": "[2]; SKOV-3 cells (ovarian adenocarcinoma), conc 0.390625 uM", "value": 98.8, "unit": "%"}, {"measurement": "viability at 72 h, 12.5 uM", "setting": "[2]; SKOV-3 cells (ovarian adenocarcinoma), conc 12.5 uM", "value": 91.2, "unit": "%"}, {"measurement": "viability at 72 h, 25 uM", "setting": "[2]; SKOV-3 cells (ovarian adenocarcinoma), conc 25 uM", "value": 100, "unit": "%"}, {"measurement": "viability at 72 h, 50 uM", "setting": "[2]; SKOV-3 cells (ovarian adenocarcinoma), conc 50 uM", "value": 20.5, "unit": "%"}, {"measurement": "viability at 72 h, 0.78125 uM", "setting": "[2]; SKOV-3 ovarian adenocarcinoma cells, conc 0.78125 uM", "value": 93.9, "unit": "%"}, {"measurement": "viability at 72 h, 1.5625 uM", "setting": "[2]; SKOV-3 ovarian adenocarcinoma cells, conc 1.5625 uM", "value": 95.7, "unit": "%"}, {"measurement": "viability at 72 h, 3.125 uM", "setting": "[2]; SKOV-3 ovarian adenocarcinoma cells, conc 3.125 uM", "value": 102, "unit": "%"}, {"measurement": "viability at 72 h, 6.25 uM", "setting": "[2]; SKOV-3 ovarian adenocarcinoma cells, conc 6.25 uM", "value": 102, "unit": "%"}, {"measurement": "SKOV3 viability (%)", "setting": "[3]", "value": "102.9% and 98.3%"}]}]}
